Paper PMC7054359, “Effects of route of administration on oxytocin-induced changes in regional cerebral blood flow in humans” (Nature Communications, 2020)
Values joined by “and” are separate entries in the source; they are usually repeats but may differ in a detail not shown here. Identical values can stand only once. Like-named read-outs stand apart in the source and are kept apart here.

Key:
[1] = Plasma OT pharmacokinetics after intravenous, nasal spray or nebulizer administration (radioimmunoassay after extraction); assay type: in vivo, humans; set-up: Plasma OT Concentration, individual participants: unit not given here; conditions: for Plasma OT Concentration, individual participants: Condition IV (10 IU), source data of Fig. 6a; for Plasma OT Concentration, individual participants / Bioavailability, individual participants: unit not given; for Bioavailability, individual participants: source data of Fig. 6c, one row per participant; for AUC of plasmatic oxytocin post-dosing / Cmax: 40 IU OT; for AUC of plasmatic oxytocin post-dosing: trapezoidal rule, 120 min post-dosing; for Cmax: healthy men, plasma, radioimmunoassay, read-out: Cmax, maximum plasmatic concentration achieved after dosing
Description: For the intranasal administrations, participants self-administered a nominal dose of 40 IU OT (Syntocinon; 40IU/ml; Novartis, Basel, Switzerland), one of the highest clinically applicable doses. We have shown that 40IU delivered with a standard nasal spray induce robust rCBF changes in the human brain in a between-subjects, single-blind design study. For the intranasal administration, we used specially manufactured placebo that contained the same excipients as Syntocinon except for oxytocin.
The aerosol droplet size of three Syntocinon spray bottles was assessed by laser diffraction (Malvern Spraytec, Malvern Panalytical, Worcestershire, UK). The mass median diameter (MMD) of the aerosol plume was 37 ± 2.5 µm.
PARI SINUS nebulizer: Participants self-administered 40IU OT (Syntocinon) or placebo, by operating the SINUS nebulizer for 3 min in each nostril (6 min in total), according to instructions. The correct application of the device was confirmed by determining gravimetrically the administered volume. Participants were instructed to breathe using only their mouth and to keep a constant breath rate with their soft palate closed, to minimize delivery to the lungs. The PARI SINUS (PARI GmbH, Starnberg, Germany) is designed to deliver aerosolised drugs to the sinus cavities by ventilating the sinuses via pressure fluctuations. The SINUS nebulizer produces an aerosol with 3 µm MMD, which is superimposed with a 44 Hz pulsation frequency. […] The efficacy of this system was first shown in a scintigraphy study by ref. [76]. Since the entrance of the sinuses is located near the olfactory region, an improved delivery to the olfactory region was expected compared to nasal sprays. Other studies[32] have shown up to 9.0% (±1.9%) of the total administered dose to be delivered to the olfactory region, 15.7 (±2.4%) to the upper nose.
For the intravenous administration, we delivered 10IU OT (Syntocinon injection formulation, 10IU/ml, Alliance, UK) or saline via slow infusion over 10 min (1IU/min). A 50-ml syringe was loaded with either 32 ml of 0.9% sodium chloride (placebo) or 30 ml of 0.9% sodium chloride with […] of Syntocinon (10IU/ml). […] The ECG was monitored during the intravenous administration interval. We selected the intravenous dose and rate of administration to assure high plasmatic concentrations of OT throughout the observation period while restricting cardiovascular effects to tolerable and safe limits. A rate of 1IU per minute is typically used in caesarean sections and is considered to have minimised side effects[77],[78].
We collected plasma samples at baseline and at five timepoints post-dosing (as detailed in Fig. 1) to measure changes in the concentration of OT. Plasmatic OT was assayed by radioimmunoassay (RIAgnosis, Munich, Germany) after extraction, currently the gold-standard technique for OT quantifications in peripheral fluids. The detection limit of this assay is in the 0.5 pg/sample range. Cross-reactivity with vasopressin, ring moieties and terminal tripeptides of both OT and vasopressin and a wide variety of peptides comprising […] (alpha-melanocyte-stimulating hormone) up to 41 (corticotrophin-releasing factor) amino acids are <0.7% throughout. The intra- and inter-assay variabilities are <10%[80].
Pharmacokinetic analysis: From the plasmatic concentrations of OT at several timepoints after dosing we calculated the area under the curve (AUC) using the trapezoidal rule for each subject and session. AUC provides a single metric that reflects variations in plasma levels of OT concentration following OT/placebo administration for each session and each participant. […] Mean AUCs were compared between the three methods of administration with a repeated measures one-way analysis of variance, using the Greenhouse-Geisser correction against violations of sphericity. Post-hoc comparisons between methods were implemented using Tukey’s correction for multiple comparisons. […]

[2] = cited from earlier work
Description: Human studies almost exclusively target the central OT system by administering synthetic OT using nasal sprays, despite a lack of understanding of the mechanisms underpinning its pharmacodynamic effects. […] The intranasal administration of OT has been favoured under the assumption that once in the nasal cavity, OT can reach the brain directly, bypassing the BBB[13]. […] The first mechanism po ...

[3] = intraperitoneal administration, cited from earlier work
Description: With respect to changes in rCBF induced by the intravenous administration of OT, there may be three possible mediating mechanisms. First, it is possible that peripheral effects of OT on vegetative territories, such as the heart, may be an indirect source of changes in areas of the interoceptive/allostasis network in the human brain, where the dorsal amygdala and the pregenual anterior cingulate cortex assume the role of visceromotor hubs[43]. […] The delivery to the paranasal sinuses seems to be increased about 3-5x by using the aerosol pulsation deposition method implemented by the PARI sinus nebuliser(6, 7). The paranasal sinus mucosa is also innervated by the trigeminal nerve which is one of the pathways propo ...

[4] = intravenous infusion of labelled synthetic OT; cited from earlier work
Description: With respect to changes in rCBF induced by the intravenous administration of OT, there may be three possible mediating mechanisms. First, it is possible that peripheral effects of OT on vegetative territories, such as the heart, may be an indirect source of changes in areas of the interoceptive/allostasis network in the human brain, where the dorsal amygdala and the pregenual anterior cingulate cortex assume the role of visceromotor hubs[43].

Plasma OT Concentration, individual participants ([1]; Sample 2): 65.12 and 59.67 and 47.11 | Plasma OT Concentration, individual participants ([1]; Sample 3): 68.1 | Plasma OT Concentration, individual participants ([1]; Sample 4): 30.93 and 53.9 | Plasma OT Concentration, individual participants ([1]; Sample 6): 12.86 and 20.71 | Plasma OT Concentration, individual participants ([1]; Sample 7): 7.3 and 7.23 and 4.61 | Plasma OT Concentration, individual participants ([1]; Sample 8): 3.77 | Time of peak plasma concentration ([1]; Intravenous, 10 IU): at the end of dosing | Time of peak plasma concentration ([1]; Nasal spray, 40 IU): at the end of dosing | AUC of plasmatic oxytocin post-dosing ([1]; PARI SINUS nebulizer, mean (1 SEM)): 15.30 (2.14) pg.ml-1.h-1 | AUC of plasmatic oxytocin post-dosing ([1]; Standard nasal spray, mean (1 SEM)): 15.70 (1.97) pg.ml-1.h-1 | Cmax ([1]; human, in vivo, inhaled or intranasal, 40 IU, PARI SINUS nebulizer, mean (1 SEM)): 0.0163 ng/mL | Cmax ([1]; human, in vivo, inhaled or intranasal, 40 IU, Standard nasal spray, mean (1 SEM)): 0.0158 ng/mL | Tmax ([1]; human, in vivo, inhaled or intranasal, Nebulizer, 40 IU, post-dosing, read-out: Time of peak plasma concentration (converted)): ~15 min | bioavailability ([1]; human, in vivo, inhaled or intranasal, Standard nasal spray 40 IU, dose-corrected AUC intranasal / dose-corrected AUC intravenous, mean (1 SEM), read-out: Absolute bioavailability of oxytocin absorbed to the plasma): 10.6%
Structure (SMILES): CC[C@H](C)[C@@H]1NC(=O)[C@H](Cc2ccc(O)cc2)NC(=O)[C@@H](N)CSSC[C@@H](C(=O)N2CCC[C@H]2C(=O)N[C@@H](CC(C)C)C(=O)NCC(N)=O)NC(=O)[C@H](CC(N)=O)NC(=O)[C@H](CCC(N)=O)NC1=O [OT, oxytocin]
Bioavailability, individual participants ([1]; Nebuliser 40 IU): 31.90 and 10.30 and 3.30 and 7.94 and 12.67 and 62.94 and 5.39 and 6.53 and 8.236 and 4.17 and 6.07 and 5.20 and 6.82 and 10.22 and 6.95 and 32.80 | Bioavailability, individual participants ([1]; Spray 40 IU): 6.85 and 11.96 and 5.38 and 16.81 and 5.32 and 6.16 and 8.93 and 4.67 and 8.4323 and 12.50 and 14.77 and 6.29 and 7.56 and 11.34 and 5.36 and 37.05 | Crossing of the blood-brain barrier [2]: unable to cross the blood-brain barrier (BBB) in significant amounts | OT concentration in brain extracellular fluid ([3]; wild-type and OT knockout mice): increased the concentration of OT in the extracellular fluid in the amygdala and dorsal hippocampus | Time the concentration in amygdala extracellular fluid remains elevated ([3]; ref Smith et al. 2019): about 1 h | Time to reach the extracellular fluid in the amygdala ([3]; ref Smith et al. 2019): ≤ 30 min | Synthetic OT levels in the CSF [4]: increased synthetic OT levels in the CSF
